Among the data in patent US10800772B2 (Gilead Sciences, Inc., priority 2016, dated 2020) are EC50 values, retold here.

SMILES strings stand for the structures.

Holding throughout (type): cell-based, HIV-1
Assay [1] has as its system HIV-IIIb (wildtype). In words: Antiviral assay in MT4 cells, HIV-IIIb wildtype. As to conditions: Human immunodeficiency virus 1, IIIB, MT4, 120 h, read-out: WT EC50. How it is done:
(§1) Antiviral Assay in MT4 Cells
(§2) For the antiviral assay, 0.4 μL of 189X test concentration of 3-fold serially diluted compound in DMSO was added to 40 μL of cell growth medium (RPMI 1640, 10% FBS, 1% Penicillin-Streptomycin, 1% L-Glutamine, 1% HEPES) in each well of 384-well plate (10 concentrations) in quadruplicate.
(§3) 1 mL Aliquots of MT4 cells were pre-infected for 3 hours at 37° C. with 25 μL of cell growth medium (mock-infected) or a fresh 1:250 dilution of an HIV-IIIb (wildtype, IN T174I BT, or IN T174I DE) concentrated ABI stock (0.004 m.o.i.). IN T174I BT virus was derived from viral breakthrough (BT) assay as described in Mulato, A.; Hansen, D.; Thielen, A.; Porter, D.; Stepan, G.; White, K.; Daeumer, M.; Cihlar, T.; Yant, S. R. AIDS Research and Human Retrovirues, July 2016, ahead of print. doi:10.1089/aid.2016.0071. IN T174I DE virus was derived from serial passaging with dose escalation (DE) of test compound. Infected and uninfected cells were diluted in cell growth media and 35 μL (2000 cells) was added to each well of the assay plates.
(§4) Assay plates were then maintained in a humidified, 5% CO2 incubator at 37° C. After 5 days of incubation, 25 μl of 2× concentrated CellTiter-Glo™ Reagent (catalog # G7573, Promega Biosciences, Inc., Madison, Wis.) was added to each well of the assay plate. Cell lysis was carried out by incubating at room temperature for 10 minutes and then chemiluminescence was read using an Envision plate reader (PerkinElmer). EC50 values were calculated as the compound concentration that caused a 50% […] in luminescence signal, a measure of HIV-1 replication.

The subject of assay [2] is HIV-IIIb IN T174I BT. In words: Antiviral assay in MT4 cells, HIV-IIIb IN T174I BT virus (from viral breakthrough). Particulars: Human immunodeficiency virus 1, IIIB, MT4, 120 h, read-out: T174I BT EC50, MT4 cells, HIV-IIIb IN T174I BT (viral breakthrough), 5 days, CellTiter-Glo. How it is done:
as §1, §2, §3, §4
(In general: In ATP-based viability assays light output follows the ATP content of the culture.)

In assay [3] the test system is HIV-IIIb IN T174I DE. In words: Antiviral assay in MT4 cells, HIV-IIIb IN T174I DE virus (from dose escalation passaging). As to conditions: Human immunodeficiency virus 1, IIIB, MT4, 120 h, read-out: T174I DE EC50, MT4 cells, HIV-IIIb IN T174I DE (dose escalation), 5 days, CellTiter-Glo. How it is done:
as §1, §2, §3, §4

Turning to `CCn1nc(C2CCN(C3COC3)CC2)c2cc(-c3nc4cc(C)c([C@H](OC(C)(C)C)C(=O)O)c(-c5ccc(Cl)cc5)c4s3)ccc21` [Compound 35, (S)-2-(tert-butoxy)-2-(7-(4-chlorophenyl)-2-(1-ethyl-3-(1-(oxetan-3-yl)piperidin-4-yl)-1H-indazol-5-yl)-5-methylbenzo[d]thiazol-6-yl)acetic acid], the concentration giving a half-maximal response (EC50) (as a rule, the concentration at which the effect is half-maximal) in assay [1] was 4 nM; in assay [2] it was 84 nM; in assay [3], 238 nM.
Taken in the same sequence, the figures for `CCn1nc2ccc(-c3nc4cc(C)c([C@H](OC(C)(C)C)C(=O)O)c(-c5ccc(Cl)cc5)c4s3)cc2c1C1CCN(C2COC2)CC1` [Compound 36, (S)-2-(tert-butoxy)-2-(7-(4-chlorophenyl)-2-(2-ethyl-3-(1-(oxetan-3-yl)piperidin-4-yl)-2H-indazol-5-yl)-5-methylbenzo[d]thiazol-6-yl)acetic acid] were 14 nM, 1080 nM and 3580 nM.
Taken in the same sequence, the figures for `Cc1cc2nc(-c3ccc4c(c3)c(C3CCN(C5COC5)CC3)nn4C3CC3)sc2c(-c2ccc(Cl)cc2)c1[C@H](OC(C)(C)C)C(=O)O` [Compound 38, (S)-2-(tert-butoxy)-2-(7-(4-chlorophenyl)-2-(1-cyclopropyl-3-(1-(oxetan-3-yl)piperidin-4-yl)-1H-indazol-5-yl)-5-methylbenzo[d]thiazol-6-yl)acetic acid] were 8 nM, 293 nM and 349 nM.
Taken in the same sequence, the figures for `Cc1cc2nc(-c3ccc4c(c3)c(C3CCN(C5COC5)CC3)nn4C(F)F)sc2c(-c2ccc(Cl)cc2)c1[C@H](OC(C)(C)C)C(=O)O` [Compound 39, (S)-2-(tert-butoxy)-2-(7-(4-chlorophenyl)-2-(1-(difluoromethyl)-3-(1-(oxetan-3-yl)piperidin-4-yl)-1H-indazol-5-yl)-5-methylbenzo[d]thiazol-6-yl)acetic acid] were 13 nM, 651 nM and 1150 nM.
On to `[2H]C([2H])([2H])n1nc(C2CCN(C3COC3)CC2)c2cc(-c3nc4cc(C)c([C@H](OC(C)(C)C)C(=O)O)c(-c5ccc(Cl)cc5)c4s3)ccc21` [Compound 40, (S)-2-(tert-butoxy)-2-(7-(4-chlorophenyl)-5-methyl-2-(1-(methyl-d3)-3-(1-(oxetan-3-yl)piperidin-4-yl)-1H-indazol-5-yl)benzo[d]thiazol-6-yl)acetic acid], for which the figures for the EC50 in assay [1], in assay [2] and in assay [3] were 10 nM, 257 nM and 518 nM, respectively.
For `Cc1cc2nc(-c3ccc4c(c3)c(C3CCN(C5COC5)CC3)nn4CC(F)(F)F)sc2c(-c2ccc(Cl)cc2)c1[C@H](OC(C)(C)C)C(=O)O` [Compound 41, (S)-2-(tert-butoxy)-2-(7-(4-chlorophenyl)-5-methyl-2-(3-(1-(oxetan-3-yl)piperidin-4-yl)-1-(2,2,2-trifluoroethyl)-1H-indazol-5-yl)benzo[d]thiazol-6-yl)acetic acid] the same measures were 3830 nM, 4980 nM and 5310 nM.
Taken in the same sequence, the figures for `Cc1cc2nc(-c3ccc4c(c3)c(C3CCN(C5COC5)CC3)nn4CC(F)F)sc2c(-c2ccc(Cl)cc2)c1[C@H](OC(C)(C)C)C(=O)O` [Compound 42, (S)-2-(tert-butoxy)-2-(7-(4-chlorophenyl)-2-(1-(2,2-difluoroethyl)-3-(1-(oxetan-3-yl)piperidin-4-yl)-1H-indazol-5-yl)-5-methylbenzo[d]thiazol-6-yl)acetic acid] were 5040 nM, 5710 nM and 5710 nM.
Turning to `CC(=O)N1CC(N2CCC(c3nn(C(F)F)c4ccc(-c5nc6cc(C)c([C@H](OC(C)(C)C)C(=O)O)c(-c7ccc(Cl)cc7)c6s5)cc34)CC2)C1` [Compound 43, (S)-2-(2-(3-(1-(1-acetylazetidin-3-yl)piperidin-4-yl)-1-(difluoromethyl)-1H-indazol-5-yl)-7-(4-chlorophenyl)-5-methylbenzo[d]thiazol-6-yl)-2-(tert-butoxy)acetic acid], the results for the EC50 in assay [1], in assay [2] and in assay [3] were 26 nM, 313 nM and 409 nM, respectively.
With `COC(=O)N1CC(N2CCC(c3nn(C(F)F)c4ccc(-c5nc6cc(C)c([C@H](OC(C)(C)C)C(=O)O)c(-c7ccc(Cl)cc7)c6s5)cc34)CC2)C1` [Compound 44, (S)-2-(tert-butoxy)-2-(7-(4-chlorophenyl)-2-(1-(difluoromethyl)-3-(1-(1-(methoxycarbonyl)azetidin-3-yl)piperidin-4-yl)-1H-indazol-5-yl)-5-methylbenzo[d]thiazol-6-yl)acetic acid], the results for the EC50 in assay [1], in assay [2] and in assay [3] were 30 nM, 600 nM and 776 nM, respectively.
For `CC(=O)N1CC(N2CCC(c3nn(C4CC4)c4ccc(-c5nc6cc(C)c([C@H](OC(C)(C)C)C(=O)O)c(-c7ccc(Cl)cc7)c6s5)cc34)CC2)C1` [Compound 45, (S)-2-(2-(3-(1-(1-acetylazetidin-3-yl)piperidin-4-yl)-1-cyclopropyl-1H-indazol-5-yl)-7-(4-chlorophenyl)-5-methylbenzo[d]thiazol-6-yl)-2-(tert-butoxy)acetic Acid] the same measures were 17 nM, 174 nM and 287 nM.
Consider `COC(=O)N1CC(N2CCC(c3nn(C4CC4)c4ccc(-c5nc6cc(C)c([C@H](OC(C)(C)C)C(=O)O)c(-c7ccc(Cl)cc7)c6s5)cc34)CC2)C1` [Compound 46, (S)-2-(tert-butoxy)-2-(7-(4-chlorophenyl)-2-(1-cyclopropyl-3-(1-(1-(methoxycarbonyl)azetidin-3-yl)piperidin-4-yl)-1H-indazol-5-yl)-5-methylbenzo[d]thiazol-6-yl)acetic acid], for which the 50% effective concentration (EC50) stood at 17 nM in assay [1], 352 nM in assay [2] and 716 nM in assay [3].
For `CCn1nc(C2CCN(C3CN(C(=O)OC)C3)CC2)c2cc(-c3nc4cc(C)c([C@H](OC(C)(C)C)C(=O)O)c(-c5ccc(Cl)cc5)c4s3)ccc21` [Compound 48, (S)-2-(tert-butoxy)-2-(7-(4-chlorophenyl)-2-(1-ethyl-3-(1-(1-(methoxycarbonyl)azetidin-3-yl)piperidin-4-yl)-1H-indazol-5-yl)-5-methylbenzo[d]thiazol-6-yl)acetic acid] the same measures were 8 nM, 70 nM and 165 nM.
Taken in the same sequence, the figures for `CCn1nc(C2CCN([C@H]3CCN(C(=O)OC)C3)CC2)c2cc(-c3nc4cc(C)c([C@H](OC(C)(C)C)C(=O)O)c(-c5ccc(Cl)cc5)c4s3)ccc21` [Compound 49, (S)-2-(tert-butoxy)-2-(7-(4-chlorophenyl)-2-(1-ethyl-3-(1-((S)-1-(methoxycarbonyl)pyrrolidin-3-yl)piperidin-4-yl)-1H-indazol-5-yl)-5-methylbenzo[d]thiazol-6-yl)acetic acid] were 4 nM, 79 nM and 286 nM.
Taken in the same sequence, the figures for `CCn1nc(C2CCN([C@@H]3CCN(C(=O)OC)C3)CC2)c2cc(-c3nc4cc(C)c([C@H](OC(C)(C)C)C(=O)O)c(-c5ccc(Cl)cc5)c4s3)ccc21` [Compound 50, (S)-2-(tert-butoxy)-2-(7-(4-chlorophenyl)-2-(1-ethyl-3-(1-((R)-1-(methoxycarbonyl)pyrrolidin-3-yl)piperidin-4-yl)-1H-indazol-5-yl)-5-methylbenzo[d]thiazol-6-yl)acetic Acid] were 4 nM, 74 nM and 276 nM.
Regarding `Cc1cc2nc(-c3ccc4c(c3)c(C3=CCOC3)nn4C)sc2c(-c2ccc(Cl)cc2)c1[C@H](OC(C)(C)C)C(=O)O` [Compound 51, (S)-2-(tert-butoxy)-2-(7-(4-chlorophenyl)-2-(3-(2,5-dihydrofuran-3-yl)-1-methyl-1H-indazol-5-yl)-5-methylbenzo[d]thiazol-6-yl)acetic acid], the EC50 in assay [1] is 15 nM; in assay [2], 2720 nM; in assay [3] it was 3590 nM.
With `Cc1cc2nc(-c3ccc4c(c3)c(C3CN(C(=O)OC(C)(C)C)C3)nn4C)sc2c(-c2ccc(Cl)cc2)c1[C@H](OC(C)(C)C)C(=O)O` [Compound 53, (S)-2-(tert-butoxy)-2-(2-(3-(1-(tert-butoxycarbonyl)azetidin-3-yl)-1-methyl-1H-indazol-5-yl)-7-(4-chlorophenyl)-5-methylbenzo[d]thiazol-6-yl)acetic acid], the values for the half-maximal effective concentration (EC50) in assay [1], in assay [2] and in assay [3] were 45 nM, 8910 nM and 57000 nM, respectively.
